Results taken from patent US20130338574A1, “ORAL MEDICINAL COMPOSITION FOR PATIENTS UNDERGOING PERITONEAL DIALYSIS AND METHOD FOR USING SAME” (TOKAI UNIVERSITY EDUCATIONAL SYSTEM, priority 2010, published 2013).

Legend:
[1] = Transfer of pyridoxamine into blood and peritoneal cavity after oral administration to uremic rat models; assay type: in vivo, Sprague-Dawley male rats; conditions: oral 30 mg/rat/day, 7 days
Text: The uremic rat models were produced using 7-week-old (body weight: 300 g or less) Sprague-Dawley male rats (CLEA Japan, Inc.) by the method described in NPL 27 and NPL 28. More specifically, the above rats were first subjected to 1/3 nephrectomy under anesthesia, and then to 1/2 nephrectomy after a week, thereby producing 5/6 nephrectomy rats (rats with kidney subtotal excision). These rats were allowed to freely take a standard diet for experimental rats (containing 1.06% calcium, 0.9% phosphate, and 21% protein; CE2: CLEA Japan, Inc.) and tap water until the eve of slaughter.
The kidney subtotal excision rats with chronic renal failure (uremic rat models) produced in the above manner were separated into two groups (each group: n=3). Distilled water for injection (Otsuka Pharmaceutical Co., Ltd.; here and below) was orally administered compulsorily to Group 1 (control group) once a day, while a pyridoxamine salt aqueous solution prepared by dissolving 30 mg of pyridoxamine dihydrochloride (Sigma; here and below) in 2 mL of distilled water for injection was orally administered compulsorily to Group 2 (pyridoxamine salt orally administered group) once a day. On the 6th day of administration, after distilled water for injection and the pyridoxamine salt aqueous solution were orally administered, respectively, to Groups 1 and 2, 20 ml of a peritoneal dialysis fluid (pH 4.5 to 5.5) (trade name: Dianeal (registered trademark) PD-4 4.25; Baxter Limited) was injected intraperitoneally to both groups.
Subsequently, on the 7th day of administration, as normal, distilled water for injection was orally administered compulsorily to Group 1, and the pyridoxamine salt aqueous solution was orally administered compulsorily to Group 2. […]
When the quantitative analysis of pyridoxamine and dicarbonyl compounds (3-deoxyglucosone) in the samples was performed by liquid chromatography (HPLC), the above frozen test samples (serum and intraperitoneal fluid) were used after natural thawing at room temperature.
First, 50 μL of each test sample (serum and intraperitoneal fluid) was taken in a test tube. […] Subsequently, the mixture was subjected to centrifugation at 12,000 rpm at 4° C. for 10 minutes to precipitate proteins, and the supernatant was then collected for use as a sample for pyridoxamine quantitative analysis by HPLC.
The quantitative analysis of pyridoxamine was carried out under the HPLC conditions described in Experimental Example 1 (2). The quantitative analysis was performed using a standard calibration curve previously prepared by measurement under the above HPLC conditions using standard solutions of pyridoxamine of known concentrations.

[2] = Stability of pyridoxamine in peritoneal dialysis fluid (HPLC); assay type: physicochemical; conditions: for peak height of pyridoxamine measured by HPLC / rate of peak height of pyridoxamine to first measurement day: 5 μg/ml
Text: • Peritoneal dialysis fluid: Dianeal (registered trademark)-N PD-4-1.5 (Baxter Limited) • Pyridoxamine dihydrochloride (Wako Pure Chemical Industries, Ltd.)
The above peritoneal dialysis fluid is composed of an acid solution containing glucose (pH 3.5 to 4.5) and an alkaline solution containing an electrolyte, such as sodium lactate (pH 7.0 to 7.7), which are respectively placed in upper and lower compartments of a two-compartment container divided by an openable partition. When peritoneal dialysis treatment is performed on a chronic renal failure patient, the partition is opened between the upper and lower compartments so that both solutions are mixed, and the mixture is used after its pH is adjusted to a neutral range (pH 6.5 to 7.5).
The glucose-containing solution (pH 4.15) in the upper compartment of the peritoneal dialysis fluid bag, the electrolyte solution (pH 7.02) in the lower compartment, and the mixture of the upper and lower compartment solutions (pH 6.76) were used as solvents, and 5 μg/ml of pyridoxamine dihydrochloride was dissolved in each solvent to obtain test samples. The test samples were left for three weeks at room temperature (25±5° C.), which was almost the same condition that renal failure patients generally store. During that period, sampling was conducted with time, and the amount of pyridoxamine contained in each test sample was measured.
The amount of pyridoxamine contained in the test samples was measured by high-performance liquid chromatography (HPLC) under the following conditions.
High-performance liquid chromatography: Shimadzu Corporation
Mobile phase: 0.1% trifluoroacetic acid-containing aqueous solution
Stationary phase: C18 column (Develosil), 4.6×150 mm, 5 μm; Nomura Chemical Co., Ltd.)
Detection: UV detection of absorbance at a wavelength of 294 nm (UV detector: Shimadzu Corporation)

[3] = within an hour after last administration, Dianeal PD-4 4.25 i.p. on 6th day
[4] = lower-compartment solution (pH 7.02), room temperature, 1st day, time 0
[5] = lower-compartment solution (pH 7.02), room temperature, 2nd day, time 24
[6] = lower-compartment solution (pH 7.02), room temperature, 6th day, time 120
[7] = lower-compartment solution (pH 7.02), room temperature, 7th day, time 144
[8] = lower-compartment solution (pH 7.02), room temperature, 8th day, time 168
[9] = lower-compartment solution (pH 7.02), room temperature, 10th day, time 216
[10] = lower-compartment solution (pH 7.02), room temperature, 15th day, time 336
[11] = lower-compartment solution (pH 7.02), room temperature, 21st day, time 480
[12] = peritoneal dialysis fluid mixture (pH 6.76), room temperature, 1st day, time 0
[13] = peritoneal dialysis fluid mixture (pH 6.76), room temperature, 2nd day, time 24
[14] = peritoneal dialysis fluid mixture (pH 6.76), room temperature, 6th day, time 120
[15] = peritoneal dialysis fluid mixture (pH 6.76), room temperature, 7th day, time 144
[16] = peritoneal dialysis fluid mixture (pH 6.76), room temperature, 8th day, time 168
[17] = peritoneal dialysis fluid mixture (pH 6.76), room temperature, 10th day, time 216
[18] = peritoneal dialysis fluid mixture (pH 6.76), room temperature, 15th day, time 336
[19] = peritoneal dialysis fluid mixture (pH 6.76), room temperature, 21st day, time 480
[20] = upper-compartment solution (pH 4.15), room temperature, 1st day, time 0
[21] = upper-compartment solution (pH 4.15), room temperature, 2nd day, time 24
[22] = upper-compartment solution (pH 4.15), room temperature, 6th day, time 120
[23] = upper-compartment solution (pH 4.15), room temperature, 7th day, time 144
[24] = upper-compartment solution (pH 4.15), room temperature, 8th day, time 168
[25] = upper-compartment solution (pH 4.15), room temperature, 10th day, time 216
[26] = upper-compartment solution (pH 4.15), room temperature, 15th day, time 336
[27] = upper-compartment solution (pH 4.15), room temperature, 21st day, time 480

Cc1ncc(CO)c(CN)c1O.Cl.Cl [pyridoxamine dihydrochloride, Pyridoxamine dihydrochloride]
Pyridoxamine amount in intraperitoneal fluid ([1]; amount in 20.8 ml of collected intraperitoneal fluid): 321 µg | pyridoxamine concentration in the intraperitoneal cavity, Group 2 relative to Group 1 (control) [1]: ≥ 65 times | Pyridoxamine concentration in intraperitoneal fluid [1, 3]: 14.7 µg/mL | Pyridoxamine concentration in serum [1, 3]: 13.8 µg/mL | peak height of pyridoxamine measured by HPLC [2, 4]: 13265 | rate of peak height of pyridoxamine to first measurement day [2, 4]: 100% | peak height of pyridoxamine measured by HPLC [2, 5]: 12959 | rate of peak height of pyridoxamine to first measurement day [2, 5]: 98% | peak height of pyridoxamine measured by HPLC [2, 6]: 13029 | rate of peak height of pyridoxamine to first measurement day [2, 6]: 98% | peak height of pyridoxamine measured by HPLC [2, 7]: 12800 | rate of peak height of pyridoxamine to first measurement day [2, 7]: 96% | peak height of pyridoxamine measured by HPLC [2, 8]: 12206 | rate of peak height of pyridoxamine to first measurement day [2, 8]: 92% | peak height of pyridoxamine measured by HPLC [2, 9]: 11887 | rate of peak height of pyridoxamine to first measurement day [2, 9]: 90% | peak height of pyridoxamine measured by HPLC [2, 10]: 11342 | rate of peak height of pyridoxamine to first measurement day [2, 10]: 86% | peak height of pyridoxamine measured by HPLC [2, 11]: 10505 | rate of peak height of pyridoxamine to first measurement day [2, 11]: 79% | peak height of pyridoxamine measured by HPLC [2, 12]: 11061 | rate of peak height of pyridoxamine to first measurement day [2, 12]: 100% | peak height of pyridoxamine measured by HPLC [2, 13]: 9991 | rate of peak height of pyridoxamine to first measurement day [2, 13]: 90% | peak height of pyridoxamine measured by HPLC [2, 14]: 10323 | rate of peak height of pyridoxamine to first measurement day [2, 14]: 93% | peak height of pyridoxamine measured by HPLC [2, 15]: 9821 | rate of peak height of pyridoxamine to first measurement day [2, 15]: 89% | peak height of pyridoxamine measured by HPLC [2, 16]: 9924 | rate of peak height of pyridoxamine to first measurement day [2, 16]: 90% | peak height of pyridoxamine measured by HPLC [2, 17]: 9612 | rate of peak height of pyridoxamine to first measurement day [2, 17]: 87% | peak height of pyridoxamine measured by HPLC [2, 18]: 9429 | rate of peak height of pyridoxamine to first measurement day [2, 18]: 85% | peak height of pyridoxamine measured by HPLC [2, 19]: 6322 | rate of peak height of pyridoxamine to first measurement day [2, 19]: 57% | pyridoxamine content relative to original content ([2]; upper-compartment and lower-compartment solutions before mixing, room temperature, within three weeks): 70% | peak height of pyridoxamine measured by HPLC [2, 20]: 14051 | rate of peak height of pyridoxamine to first measurement day [2, 20]: 100% | peak height of pyridoxamine measured by HPLC [2, 21]: 13271 | rate of peak height of pyridoxamine to first measurement day [2, 21]: 94% | peak height of pyridoxamine measured by HPLC [2, 22]: 13084 | rate of peak height of pyridoxamine to first measurement day [2, 22]: 93% | peak height of pyridoxamine measured by HPLC [2, 23]: 13316 | rate of peak height of pyridoxamine to first measurement day [2, 23]: 95% | peak height of pyridoxamine measured by HPLC [2, 24]: 11561 | rate of peak height of pyridoxamine to first measurement day [2, 24]: 82% | peak height of pyridoxamine measured by HPLC [2, 25]: 12139 | rate of peak height of pyridoxamine to first measurement day [2, 25]: 86% | peak height of pyridoxamine measured by HPLC [2, 26]: 11518 | rate of peak height of pyridoxamine to first measurement day [2, 26]: 82% | peak height of pyridoxamine measured by HPLC [2, 27]: 10605 | rate of peak height of pyridoxamine to first measurement day [2, 27]: 75% | stability of pyridoxamine in the peritoneal dialysis fluid ([2]; upper-compartment solution, lower-compartment solution and mixture, left for three weeks): unstable
